Reference: patent publication US20230040182A1, “ARYL HETEROBICYCLIC COMPOUNDS AS Kv1.3 POTASSIUM SHAKER CHANNEL BLOCKERS” (priority 2019, published 2023)

Columns and labels:
[1] = molecular target: T1, Kv1.3 potassium channel (Homo sapiens, UniProt P22001); assay: Kv1.3 potassium channel blocker activity, automated whole-cell patch clamp (Patchliner); format: cell-based; details: CHO-K1 cells stably expressing Kv1.3; whole-cell current, Hill fit
T1 construct: expressed in transfected cells
Procedure, shortened: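 Stably transfected CHO-K1 cells, whole-cell automated patch clamp: 100 ms pulses from −90 to +40 mV at 0.1 Hz, 20-pulse trains, cumulative concentrations 30 nM–100 μM without washout (≤0.3% DMSO), external pH 7.4. IC50 from Hill fit of last-pulse peak/AUC normalized to compound-free control.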

[2] = molecular target: T2, hERG channel (Homo sapiens, UniProt Q12809); assay: hERG electrophysiology, automated whole-cell patch clamp (Patchliner); format: cell-based; details: CHO-K1 cells stably expressing hERG; whole-cell current, Hill fit
T2 construct: expressed in transfected cells
Method: Example 10. Evaluation of hERG Activities
This assay is used to evaluate the disclosed compounds' inhibition activities against the hERG channel.
CHO-K1 cells stably expressing hERG were grown in Ham's F-12 Medium with Glutamine containing 10% heat-inactivated FBS, 1% Penicillin/Streptomycin, Hygromycin (100 μg/ml) and G418 (100 μg/ml). Cells were grown in culture flasks at 37° C. in a 5% CO2-humidified incubator.
The cells were bathed in an extracellular solution containing 140 mM NaCl, 4 mM KCl, 2 mM CaCl2), 1 mM MgCl2, 5 mM Glucose, 10 mM HEPES; pH adjusted to 7.4 with NaOH; 295-305 mOsm. The internal solution contained 50 mM KCl, 10 mM NaCl, 60 mM KF, 20 mM EGTA, 10 mM HEPES; pH adjusted to 7.2 with KOH; 285 mOsm. All compounds were dissolved in DMSO at 30 mM. Compound stock solutions were freshly diluted with external solution to concentrations of 30 nM, 100 nM, 300 nM, 1 μM, 3 μM, 10 μM, 30 μM and 100 μM. The highest content of DMSO (0.3%) was present in 100 μM.
The voltage protocol (see Table B) was designed to simulate voltage changes during a cardiac action potential with a 300 ms depolarization to +20 mV (analogous to the plateau phase of the cardiac action potential), a repolarization for 300 ms to −50 mV (inducing a tail current) and a final step to the holding potential of −80 mV. The pulse frequency was 0.3 Hz. Control (compound-free) and compound pulse trains for each compound concentration applied contained 70 pulses.
Whole-cell current recordings and compound application were enabled by means of an automated patch clamp platform Patchliner (Nanion). EPC 10 patch clamp amplifier (HEKA) along with Patchmaster software (HEKA Elektronik Dr. Schulze GmbH) was used for data acquisition. Data were sampled at 10 kHz without filtering. Increasing compound concentrations were applied consecutively to the same cell without washouts in between.
AUC and PEAK values were obtained with Patchmaster (HEKA Elektronik Dr. Schulze GmbH). To determine IC50 the last single pulse in the pulse train corresponding to a given compound concentration was used. Obtained AUC and PEAK values in the presence of compound were normalized to control values in the absence of compound. Using Origin (OridinLab), IC50 was derived from data fit to Hill equation: Icompound/Icontrol=(100−A)/(1+([compound]/IC50)nH)+A, where IC50 is the concentration at which current inhibition is half-maximal, [compound] is the applied compound concentration, A is the fraction of current that is not blocked and nH is the Hill coefficient.

T1 sequence (P22001 whole entry): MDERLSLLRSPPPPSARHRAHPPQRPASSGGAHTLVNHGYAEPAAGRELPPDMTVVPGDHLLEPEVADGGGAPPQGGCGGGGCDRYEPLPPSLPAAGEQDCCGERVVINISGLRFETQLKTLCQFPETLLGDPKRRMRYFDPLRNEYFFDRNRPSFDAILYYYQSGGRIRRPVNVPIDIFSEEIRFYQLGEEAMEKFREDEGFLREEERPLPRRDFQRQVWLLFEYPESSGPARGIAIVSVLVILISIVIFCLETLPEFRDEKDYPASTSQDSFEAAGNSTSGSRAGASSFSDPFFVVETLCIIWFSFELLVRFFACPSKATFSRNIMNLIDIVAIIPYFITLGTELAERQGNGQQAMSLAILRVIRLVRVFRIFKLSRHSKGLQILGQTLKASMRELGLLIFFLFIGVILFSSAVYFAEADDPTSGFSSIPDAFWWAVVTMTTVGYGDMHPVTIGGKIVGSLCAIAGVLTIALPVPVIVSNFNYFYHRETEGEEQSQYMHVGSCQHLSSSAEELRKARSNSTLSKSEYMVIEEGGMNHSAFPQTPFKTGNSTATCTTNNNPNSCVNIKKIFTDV
T2 sequence (Q12809 whole entry): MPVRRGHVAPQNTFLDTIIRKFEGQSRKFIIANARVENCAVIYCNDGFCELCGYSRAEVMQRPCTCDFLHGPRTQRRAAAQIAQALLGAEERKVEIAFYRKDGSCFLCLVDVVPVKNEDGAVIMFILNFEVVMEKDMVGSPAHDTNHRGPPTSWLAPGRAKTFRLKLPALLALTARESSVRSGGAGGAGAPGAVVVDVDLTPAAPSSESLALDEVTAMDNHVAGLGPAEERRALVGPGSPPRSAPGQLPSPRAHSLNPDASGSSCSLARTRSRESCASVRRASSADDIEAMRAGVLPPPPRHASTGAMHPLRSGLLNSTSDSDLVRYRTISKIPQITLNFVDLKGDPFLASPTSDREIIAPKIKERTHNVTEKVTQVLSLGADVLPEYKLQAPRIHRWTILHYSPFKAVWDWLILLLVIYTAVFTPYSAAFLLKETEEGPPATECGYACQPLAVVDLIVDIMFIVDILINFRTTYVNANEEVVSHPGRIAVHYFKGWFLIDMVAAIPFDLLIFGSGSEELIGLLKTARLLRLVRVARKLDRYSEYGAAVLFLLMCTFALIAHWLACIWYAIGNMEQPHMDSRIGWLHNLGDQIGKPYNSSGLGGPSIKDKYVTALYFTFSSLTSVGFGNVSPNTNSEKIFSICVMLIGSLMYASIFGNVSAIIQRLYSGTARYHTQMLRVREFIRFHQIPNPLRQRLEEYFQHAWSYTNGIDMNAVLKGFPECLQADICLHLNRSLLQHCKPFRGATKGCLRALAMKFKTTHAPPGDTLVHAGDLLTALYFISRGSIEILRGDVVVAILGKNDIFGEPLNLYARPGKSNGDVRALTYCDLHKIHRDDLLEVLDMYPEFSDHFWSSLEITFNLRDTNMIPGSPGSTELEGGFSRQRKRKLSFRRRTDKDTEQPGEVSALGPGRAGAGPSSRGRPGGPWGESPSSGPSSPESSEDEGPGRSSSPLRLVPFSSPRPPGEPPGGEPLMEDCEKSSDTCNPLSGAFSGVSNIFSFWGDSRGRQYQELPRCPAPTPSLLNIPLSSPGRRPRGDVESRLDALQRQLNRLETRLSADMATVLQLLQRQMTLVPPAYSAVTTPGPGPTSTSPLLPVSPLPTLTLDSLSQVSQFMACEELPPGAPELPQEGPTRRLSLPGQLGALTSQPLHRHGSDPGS

Row | SMILES | IC50 [1] | IC50 [2]
1 | O=C1[C@@H]2C[C@H](c3c(O)ccc(Cl)c3Cl)CCN2C(=O)[C@H]2C[C@@H](O)CN12 [Compound 52, (2R,5aS,7R,11aR)-7-(2,3-dichloro-6-hydroxyphenyl)-2-hydroxyhexahydro-1H-pyrido[1,2-a]pyrrolo[1,2-d]pyrazine-5,11(5aH,11aH)-dione] | < 1 µM | > 30 µM
2 | O=C1N[C@@H](CO)C(=O)N2CC[C@@H](c3c(O)ccc(Cl)c3Cl)C[C@@H]12 [Compound 53, (3S,8R,9aS)-8-(2,3-dichloro-6-hydroxyphenyl)-3-(hydroxymethyl)hexahydro-4H-pyrido[1,2-a]pyrazine-1,4(6H)-dione] | < 1 µM | > 30 µM
3 | C[C@H]1NC(=O)[C@@H]2C[C@H](c3c(O)ccc(Cl)c3Cl)CCN2C1=O [Compound 58, (3R,8R,9aS)-8-(2,3-dichloro-6-hydroxyphenyl)-3-methyl-hexahydro-2H-pyrido[1,2-a]pyrazine-1,4-dione] | < 1 µM | > 30 µM
4 | O=C1N[C@H](CO)C(=O)N2CC[C@@H](c3c(O)cc(Cl)c(Cl)c3Cl)C[C@@H]12 [Compound 60, (8R,9aS)-3-((3R)-hydroxymethyl)-8-(2,3,4-trichloro-6-hydroxyphenyl)-hexahydro-2H-pyrido[1,2-a]pyrazine-1,4-dione] | < 1 µM | > 30 µM
5 | O=C1[C@H]2C[C@@H](c3c(O)ccc(Cl)c3Cl)CCN2C(=O)CN1C1CNC1 [Compound 64, (8S,9aR)-2-(azetidin-3-yl)-8-(2,3-dichloro-6-hydroxyphenyl)-octahydro-1H-pyrido[1,2-a]pyrazine-1,4-dione] | < 1 µM | > 30 µM
6 | NN1C(=O)[C@@H]2C[C@H](c3c(O)ccc(Cl)c3Cl)CCN2C1=O [Compound 68, (7R,8aS)-2-amino-7-(2,3-dichloro-6-hydroxyphenyl)tetrahydro-imidazo[1,5-a]pyridine-1,3(2H,5H)-dione] | < 1 µM | > 30 µM
